Molecular target: JAK1 (Homo sapiens, UniProt P23458)
Experiment: JAK1 binding affinity
Excerpt: An exemplary conjugation of JAK1 inhibitor Target-007 to a dendrimer is shown below (Structure XXXIII). JAK1 binding affinity of Target-007 is about […] and the binding affinity of dendrimer conjugated Target-007 is about […].

JAK1, sequence (P23458 whole entry, species assumed): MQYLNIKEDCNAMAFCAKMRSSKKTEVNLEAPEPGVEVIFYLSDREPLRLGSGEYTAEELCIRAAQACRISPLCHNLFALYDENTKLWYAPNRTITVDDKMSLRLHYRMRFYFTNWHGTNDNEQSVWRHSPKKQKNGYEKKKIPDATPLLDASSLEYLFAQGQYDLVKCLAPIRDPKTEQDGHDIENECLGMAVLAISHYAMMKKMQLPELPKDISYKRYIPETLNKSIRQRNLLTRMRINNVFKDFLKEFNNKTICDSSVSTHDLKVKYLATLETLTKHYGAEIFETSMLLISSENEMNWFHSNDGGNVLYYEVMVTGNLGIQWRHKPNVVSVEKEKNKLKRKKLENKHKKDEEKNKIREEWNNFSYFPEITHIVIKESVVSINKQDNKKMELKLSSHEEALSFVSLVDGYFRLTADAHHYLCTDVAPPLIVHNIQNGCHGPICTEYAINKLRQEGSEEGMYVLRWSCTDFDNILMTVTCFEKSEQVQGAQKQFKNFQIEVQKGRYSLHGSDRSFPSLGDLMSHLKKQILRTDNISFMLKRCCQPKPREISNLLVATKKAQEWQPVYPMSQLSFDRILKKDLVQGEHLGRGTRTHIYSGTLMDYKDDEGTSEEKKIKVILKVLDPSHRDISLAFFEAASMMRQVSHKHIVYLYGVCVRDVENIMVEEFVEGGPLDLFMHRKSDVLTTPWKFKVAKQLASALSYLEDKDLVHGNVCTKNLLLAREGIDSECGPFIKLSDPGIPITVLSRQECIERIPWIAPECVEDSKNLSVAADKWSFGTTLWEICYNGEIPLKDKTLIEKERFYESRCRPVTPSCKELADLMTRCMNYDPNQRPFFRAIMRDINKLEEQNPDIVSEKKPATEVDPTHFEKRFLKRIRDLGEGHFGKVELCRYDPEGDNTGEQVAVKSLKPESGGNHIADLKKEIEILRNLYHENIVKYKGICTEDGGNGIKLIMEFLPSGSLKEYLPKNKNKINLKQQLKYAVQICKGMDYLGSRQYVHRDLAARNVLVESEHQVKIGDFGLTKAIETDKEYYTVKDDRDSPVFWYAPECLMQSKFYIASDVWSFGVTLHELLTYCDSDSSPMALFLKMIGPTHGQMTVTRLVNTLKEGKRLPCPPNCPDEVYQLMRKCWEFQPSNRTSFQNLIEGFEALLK

Structure (SMILES): COc1cc(-c2nc3c(NCC4CCNCC4)c(Cl)cnc3[nH]2)c(F)cc1OCCOCCOCCOCCN=[N+]=[N-] [Target-007]
- Kd: ~1 nM

Reference: US20230226199A1, “DENDRIMER COMPOSITIONS AND METHODS FOR DRUG DELIVERY” (Ashvattha Therapeutics, Inc., priority 2019, published 2023)
